Publication PMC11338949, “E41K mutation activates Bruton’s tyrosine kinase by stabilizing an inositol hexakisphosphate-dependent invisible dimer” (The Journal of Biological Chemistry, 2024)
Where two headings read alike, the source gives them in different places.

Columns and labels:
BTK wild-type = BTK wild-type (Mus musculus, UniProt P35991); experiment: Immunofluorescence of Y551 phosphorylation in transiently transfected CHO cells; settings: 500 μM IP6 for 1 h
Protocol: (§3) The IP6-mediated activation of BTK was determined by immunofluorescence and immunoblot in Chinese Hamster Ovary (CHO) cell line transiently transfected with BTK-mCherry cloned in pCDNA. […] Before activation, transfected cells were serum-starved for 6 h in opti-MEM, followed by incubation with 500 μM IP6 for 1 h in opti-MEM. For Immunoblot, cells were washed with ice-cold PBS and then incubated in RIPA buffer [10 mM Tris-Cl (pH 8.0), 140 mM NaCl, 1 mM EDTA, 0.1% SDS, and 1% Triton X-100] containing protease and phosphatase inhibitors (2 mM Benzamidine, 1 mM PMSF and 1 mM Sodium orthovanadate) for 10 min. […]
(§4) All images were acquired with the Leica SP8 confocal platform using an oil immersion HC PL APO CS2 63 × objective (NA 1.4) at 3.0X digital zoom. […] The level of BTK on the membrane or cytoplasm was determined from the intensity of mCherry measured at λex = 552 nm and λem = 576 to 651 nm, respectively. The Y551 phosphorylation was determined from the intensity of FITC tagged to the secondary antibody and measured at λex = 488 nm and λem = 505 to 531 nm. […] The intensity of mCherry or FITC at the membrane was determined by subtracting the respective intensities of ROI2 from ROI1. Whereas cytoplasmic intensity of mCherry or FITC was determined by subtracting the respective intensities of ROI3 from ROI2. […]

BTK^E41K/R28H = BTK^E41K/R28H (Mus musculus, UniProt P35991, E41K/R28H); experiment: as above; settings: 500 μM IP6 for 1 h
BTK^E41K/R28H, sequence (P35991 whole entry R28H/E41K): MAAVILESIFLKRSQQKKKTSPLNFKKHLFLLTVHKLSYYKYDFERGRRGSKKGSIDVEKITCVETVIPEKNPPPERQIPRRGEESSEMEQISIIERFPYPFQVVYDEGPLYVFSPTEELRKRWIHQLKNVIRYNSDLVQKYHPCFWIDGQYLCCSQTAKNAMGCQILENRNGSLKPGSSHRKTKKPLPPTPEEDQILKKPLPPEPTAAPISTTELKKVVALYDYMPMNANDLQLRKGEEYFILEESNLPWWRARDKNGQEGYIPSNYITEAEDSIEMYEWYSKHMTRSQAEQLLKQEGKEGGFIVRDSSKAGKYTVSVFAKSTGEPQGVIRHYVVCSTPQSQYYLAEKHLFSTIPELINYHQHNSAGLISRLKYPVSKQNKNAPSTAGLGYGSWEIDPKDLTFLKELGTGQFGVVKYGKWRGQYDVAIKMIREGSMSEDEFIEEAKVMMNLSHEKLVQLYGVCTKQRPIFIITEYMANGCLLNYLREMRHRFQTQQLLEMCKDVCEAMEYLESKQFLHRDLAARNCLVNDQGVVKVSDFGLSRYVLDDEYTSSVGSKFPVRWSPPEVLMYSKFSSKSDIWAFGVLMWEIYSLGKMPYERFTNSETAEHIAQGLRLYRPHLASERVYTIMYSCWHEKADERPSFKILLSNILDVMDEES
Protocol: as §3, §4

BTK PH-TH E41K/R49S = biological target: T1, BTK PH-TH E41K/R49S (Bos taurus, UniProt Q3ZC95, E41K/R49S); experiment: Isothermal titration calorimetry, IP6 binding to PH-TH E41K/R49S; settings: ITC
T1 construct: amino acid residue number 4–170; His-SUMO (N, cleaved yes); made in house; host or cells: E. coli BL21-DE3
T1 sequence (Q3ZC95 4-170 E41K/R49S): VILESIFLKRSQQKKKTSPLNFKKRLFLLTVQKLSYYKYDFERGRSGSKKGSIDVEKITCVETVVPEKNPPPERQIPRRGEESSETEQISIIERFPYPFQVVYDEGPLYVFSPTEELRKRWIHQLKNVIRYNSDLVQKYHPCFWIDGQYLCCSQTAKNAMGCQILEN
Protocol: (§1) The isothermal titration calorimetry experiments were performed using MicroCal ITC (GE Healthcare) and MicroCal PEAQ-ITC (Malvern). The PH-TH domain was buffer exchanged to 20 mM HEPES, 150 mM NaCl, pH 7.5. During the titration, 25 μM protein in the cell was titrated with a ligand at the protein-to-ligand ratio of 1: 5.5. All ITC titrations were performed at 20 °C. The initial injection of 0.5 μl was excluded from the data analysis.

BTK PH-TH E41K/R28H = biological target: T2, BTK PH-TH E41K/R28H (Bos taurus, UniProt Q3ZC95, E41K/R28H); experiment: Isothermal titration calorimetry, IP6 binding to PH-TH E41K/R28H; settings: ITC
T2 construct: amino acid residue number 4–170; His-SUMO (N, cleaved yes); made in house; host or cells: E. coli BL21-DE3
T2 sequence (Q3ZC95 4-170 R28H/E41K): as the sequence (Q3ZC95 4-170 E41K/R49S) above, with R25H, S46R counted along it
Protocol: as §1

PH-TH^E41K [1] = biological target: T3, PH-TH^E41K (Bos taurus, UniProt Q3ZC95, E41K); experiment: Dynamic light scattering of PH-TH domain with IP6; settings: in the presence of IP6
T3 construct: amino acid residue number 4–170; His-SUMO (N, cleaved yes); made in house; host or cells: E. coli BL21-DE3
T3 sequence (Q3ZC95 4-170 E41K): as the sequence (Q3ZC95 4-170 E41K/R49S) above, with S46R counted along it
Protocol: (§2) The Dynamic Light Scattering experiments were conducted using Malvern Zetasizer DLS Detectors using 1.5 ml plastic cuvettes. The samples were prepared in a buffer containing 25 mM Tris-Cl, 100 mM NaCl, 1 mM DTT, and pH 7.2. The experiment included three measurements of ten runs each. The theoretical calculations of the hydrodynamic radius of the proteins were performed using Hydropro ([51]).

[2] = biological target: T4, wild-type PH-TH domain of BTK (Bos taurus, UniProt Q3ZC95); experiment: Dynamic light scattering of PH-TH domain with IP6; settings: IP6 bound PH-TH domain
T4 construct: amino acid residue number 4–170; His-SUMO (N, cleaved yes); made in house; host or cells: E. coli BL21-DE3
T4 sequence (Q3ZC95 4-170): as the sequence (Q3ZC95 4-170 E41K/R49S) above, with K38E, S46R counted along it
Protocol: as §2

PH-TH^E41K [3] = biological target: T3, PH-TH^E41K; experiment: Size-exclusion chromatography of PH-TH domain with ligand
Protocol: Size-exclusion chromatography of various constructs of the PH-TH domain was performed using the Superdex-200 10/300 Gl column. For the apo PH-TH domain, the column was equilibrated with running buffer (25 mM Tris-Cl, 100 mM NaCl, 1 mM DTT, pH 7.2), and 500 μl of 75 μM protein was loaded into the column, at a flow rate of 0.3 ml/min and at 8 °C. The elution profile was recorded, and the retention time of the protein was calculated. For the ligand-bound samples, the protein was mixed with ligand at a protein-to-ligand ratio of 1:4, and incubated at 4 °C for 15 min before loading into the size-exclusion column. Before loading the sample, the column was pre-equilibrated with a running buffer containing the ligand.

[4] = biological target: T5, PH-TH^E41K (isolated PH-TH domain of BTK, E41K mutant) (Bos taurus, UniProt Q3ZC95, E41K); experiment: Isothermal titration calorimetry, ligand binding to isolated PH-TH domain E41K mutant; settings: ITC
T5 construct: amino acid residue number 4–170; His-SUMO (N, cleaved yes); made in house; host or cells: E. coli BL21-DE3
T5 sequence (Q3ZC95 4-170 E41K): as the sequence (Q3ZC95 4-170 E41K/R49S) above, with S46R counted along it
Protocol: as §1, with “analysis. During the titration, 3 μl of ligand was injected in 13 steps, and each injection step was separated by 180 s. The protein solution was stirred at 300 rpm during the titration.” for “analysis.”

PH-TH^E41K [5] = biological target: T3, PH-TH^E41K; experiment: Thermal denaturation by circular dichroism spectroscopy; settings: at the Tm of the apo state, equimolar ligand
Protocol: The melting temperature of the PH-TH domain was determined from the Circular Dichroism (CD) spectrum recorded at increasing temperatures (20° to 76 °C). For each sample, the CD spectra from 300 to 190 nm were recorded using a Jasco-J1500 spectropolarimeter with a temperature increment of 4 °C. CD spectra were recorded with 5 μM protein in 20 mM Sodium phosphate buffer pH 7.4 and in the absence or in the presence of an equimolar ligand. The measured ellipticity data was converted into molar ellipticity ([39]). The ΔGUnfolding was calculated considering the simplest two-step unfolding model, where a protein exists in a folded (F) and an unfolded (U) state as described previously ([40], [41]). The fraction unfolded [U] protein at a given temperature is:(1) [U]=(θT−θF)/(θU−θF) Where, θF and θU are the molar ellipticity of the fully folded and unfolded state at 218 nm, θT is the molar ellipticity at a given temperature. Considering that at a given temperature, the sum of the unfolded and folded [F] fraction of the protein is 1, the equilibrium constant, KUnfolding is:(2) KUnfolding=[U]/1−[U] […] The ΔΔGunfolding was calculated from the difference between the ΔG of the IP6 bound ΔGholo and ΔGapo state, measured at the Tm of the corresponding apo PH-TH construct.

BTK^E41K = biological target: T6, BTK^E41K (Mus musculus, UniProt P35991, E41K); experiment: TIRF microscopy of membrane-bound BTK-mCherry in live CHO cells after IP6 stimulation; assay type: cell-based, Chinese Hamster
T6 construct: expressed in transfected cells; host or cells: CHO cells, transient transfection with pCDNA BTK-mCherry
T6 sequence (P35991 whole entry E41K): as the sequence (P35991 whole entry R28H/E41K) above, with H28R counted along it
Protocol: For Total internal reflection fluorescence (TIRF) microscopy, CHO cells were seeded in a glass bottom dish and transfected with 500 ng DNA. After 16 h of post-transfection, cells were serum starved by incubating in Opti-MEM serum-free media for 6 h. The images of lived CHO cells were recorded for 10 min before and after IP6 treatment. The TIRF images were acquired on a Nikon Eclipse Ti2 inverted microscope equipped with a Nikon 100 × 1.49 numerical aperture oil-immersion TIRF objective, a TIRF illuminator, a Perfect Focus system (PFS), and a motorized stage. The critical angle and the refractive index were set to 63° and 1.515, respectively ([53]). The samples were excited at 561 nm using an LU-N4 laser unit (Nikon, Tokyo, Japan) with solid-state lasers. Image acquisition was done using the Nikon NIS-Elements software. Live cell images were acquired at 1-min intervals for 10 min using an EMCCD camera, with an exposure time of 200 ms. The images were processed and analyzed using Fiji. Out-of-focus fluorescence in the acquired images is removed by deconvolution ([54]). […] The fluorescence intensity of each frame was quantified using “create spectrum jru V1” routine of Fiji. The half-life of fluorescence intensity at the plasma membrane was determined by fitting the fluorescence decay at indicated time points to a first-order kinetic equation using GraphPad Prism version 9.5.1.

BTK wild-type, sequence (P35991 whole entry): as the sequence (P35991 whole entry R28H/E41K) above, with H28R, K41E counted along it

Which “activation (Y551 phosphorylation) of cytosolic fraction of BTK” value (BTK wild-type) does the source give for `O=P(O)(O)OC1C(OP(=O)(O)O)C(OP(=O)(O)O)C(OP(=O)(O)O)C(OP(=O)(O)O)C1OP(=O)(O)O` (stereo not shown) [IP6, inositol hexakisphosphate] here?
Its value is “activates”.

What about the “activation (Y551 phosphorylation) of BTK” value (BTK^E41K/R28H) of the same compound?
Its value is “does not activate”.

And the “∆H1” value (BTK PH-TH E41K/R49S; Table S1)?
The value was -4.16 ± 0.55 kcal/mol.

What about the Kd (BTK PH-TH E41K/R49S; one-site fit, binding to canonical lipid binding site, read-out: Kd (Kd1)) of the same compound?
The Kd was 622 ± 77 nM.

And the “∆H1” value (BTK PH-TH E41K/R28H; Table S1)?
Its value is -1.562 ± 1.008 kcal/mol.

What about the Kd (BTK PH-TH E41K/R28H; Table S1, read-out: Kd1) of the same compound?
The Kd was 2420 ± 151 nM.

And the Kd (BTK PH-TH E41K/R28H; one-site fit, weak binding to peripheral lipid binding site, read-out: Kd)?
Its Kd is 2400 ± 150 nM.

What about the hydrodynamic radius (PH-TH^E41K [1]) of the same compound?
Its hydrodynamic radius is 3.14 ± 0.48 nm.

What about the hydrodynamic radius [2] of the same compound?
The hydrodynamic radius was 2.18 ± 0.10 nm.

And the “apparent size of migrating species in size-exclusion column” value (PH-TH^E41K [3]; in the presence of IP6 (300 μM))?
Its value is roughly 44 kDa.

What about the “∆H1” value ([4]; Table S1) of the same compound?
Its value is -4.749 ± 0.159 kcal/mol.

And the “∆H2” value ([4]; Table S1)?
The value was -5.098 ± 2.36 kcal/mol.

What about the Kd ([4]; Table S1, 20 °C, read-out: Kd2) of the same compound?
Its Kd is 1280 ± 366 nM.

And the Kd ([4]; two-site independent binding model, strong site, 20 °C, read-out: Kd1)?
Its Kd is 152 ± 18 nM.

And the Kd ([4]; two-site independent binding model, weak site, 20 °C, read-out: Kd2)?
Its Kd is 1300 ± 400 nM.

And the “ΔΔGunfolding (ΔGholo – ΔGapo)” value (PH-TH^E41K [5])?
Its value is 1.49 ± 0.79 kcal/mol.

And the “critical concentration at which BTK^E41K comes out of the membrane” value (BTK^E41K)?
Its value is 0.5 mM.

What does the source list for `O=P(O)(O)O[C@@H]1[C@H](O)[C@H](O)[C@@H](OP(=O)(O)O)[C@H](OP(=O)(O)O)[C@H]1O` [IP3]?
dimerization of PH-TH^E41K (PH-TH^E41K [3]; size-exclusion chromatography, in the presence of ligand): does not dimerize; binding to PH-TH^E41K ([4]; 25 μM protein titrated with 137 μM ligand): does not bind
